Common to all, as to type: cell-based
For assay [1], the system named is U937 cells (human monocytic cell line). Kind of assay: Pam2CSK4-induced TNF-α secretion inhibition in PMA-differentiated U937 cells. The conditions noted are these: U-937, U937 cells differentiated with PMA, read-out: TNF-α production inhibition grade (IC50). On the procedure:
(§1) To evaluate anti-inflammatory efficacy, U937 cells (human monocytic cell line) were differentiated into macrophages using PMA (phorbol 12-myristate 13-acetate) and then induced an inflammatory response with Pam2CSK4 (Pam2CysSerLys4) or BzATP (2′(3′)—O-(4-Benzoylbenzoyl)adenosine 5′-triphosphate), the efficacy of taurine-bile acid derivatives in suppressing inflammatory cytokine (IL-1β, TNF-α) production was measured.
(§2) Using PMA, U937 cells were differentiated into macrophages, and the extent of TNF-α secretion inhibition was measured in an experimental group where taurine-bile acid derivatives was treated, followed by induction of inflammatory response with Pam2CSK4, and in the experimental group in which an inflammatory response was induced with BzATP, the extent to which IL-1β secretion among cytokines was suppressed was measured.
(§3) The ability of taurine-bile acid derivatives to inhibit cytokine production was expressed in terms of IC50 (μM) values. The standards for TNF α inhibition ability are A: less than 0.5, B: 0.5 to less than 1.0, C: 1.0 to less than 2.0, D: 2.0 or more, and the IL-1β inhibition ability grade standards are A: less than 0.05, B: 0.05 to less than 0.10, C: 0.10 or more and less than 0.20, D: 0.20 or more.

Assay [2] has the same test system. Kind of assay: BzATP-induced IL-1β secretion inhibition in PMA-differentiated U937 cells. The following applies: U-937, U937 cells differentiated with PMA, read-out: IL-1β production inhibition grade (IC50). How it is done:
as §1, §2, §3

In assay [3] the test system is J774A.1 (Mouse BALB/c monocyte macrophage cell line) cells. Kind of assay: LPS-induced TNF-α secretion inhibition in J774A.1 cells. The following applies: J774.A1, 1 μM compound, graded compared to taurodeoxycholic acid (positive control), read-out: TNF-α production inhibition grade. On the procedure:
(§4) To evaluate anti-inflammatory efficacy, an inflammatory response was induced in J774A.1 (Mouse BALB/c monocyte macrophage cell line) cells derived from mouse macrophages by LPS (lipopolysaccharide) and LPS+ATP (adenosine triphosphate), and the efficacy of taurine-bile acid derivatives to inhibit the production of inflammatory cytokines (IL-1β, TNF-α) was measured. After treating J774A.1 cells with 1 μM of a taurine-bile acid derivative, the degree to which the secretion of TNF-α among cytokines was suppressed was measured in the experimental group in which an inflammatory response was induced by LPS, and the extent to which IL-1β secretion among cytokines was suppressed was measured in the experimental group in which an inflammatory response was induced with LPS+ATP. The ability of taurine-bile acid derivatives to inhibit cytokine production was graded compared to taurodeoxycholic acid, a positive control. The grading criteria are A: over 100%, B: over 50% and under 100%, C: between 20% and under 50%, and D: under 20%.

Assay [4] shares this test system. The assay can be described thus: LPS+ATP-induced IL-1β secretion inhibition in J774A.1 cells. The following applies: J774.A1, 1 μM compound, graded compared to taurodeoxycholic acid (positive control), read-out: IL-1β production inhibition grade. On the procedure:
as §4

As usually defined, the IC50 is the concentration that inhibits the measured activity by half. By inhibition is commonly meant the relative decrease from the control value, in per cent. As for `C[C@H](CCC(=O)N1CCC[C@@H](S(=O)(=O)O)C1)[C@H]1CC[C@H]2[C@@H]3CC[C@@H]4C[C@H](O)CC[C@]4(C)[C@H]3C[C@H](O)[C@]12C` [NC10027], the results for the IC50 in assay [1] and in assay [2] were 500 to 1000 nM and less than 50 nM, respectively. Further, the figures for the inhibition at 1 µM in assay [3] and in assay [4] were less than 20% and more than 100%, respectively.

With `C[C@H](CCC(=O)N1CC(S(=O)(=O)O)C1)[C@H]1CC[C@H]2[C@@H]3CC[C@@H]4C[C@H](O)CC[C@]4(C)[C@H]3C[C@H](O)[C@]12C` [NC10028], the IC50 was not below 2000 nM in assay [1] and 50 to 100 nM in assay [2]. Moreover, the inhibition at 1 µM in assay [3] is less than 20%; in assay [4], more than 100%.

For the molecule `C[C@H](CCC(=O)NC(C)(C)CS(=O)(=O)O)[C@H]1CC[C@H]2[C@@H]3CC[C@@H]4C[C@H](O)CC[C@]4(C)[C@H]3C[C@H](O)[C@]12C` [NC10029], the IC50 in assay [1] is not below 2000 nM; in assay [2], 50 to 100 nM. For the same molecule, the inhibition at 1 µM in assay [3] was less than 20%; in assay [4], more than 100%.

For the molecule `C[C@H](CCC(=O)N[C@H](Cc1ccccc1)CS(=O)(=O)O)[C@H]1CC[C@H]2[C@@H]3CC[C@@H]4C[C@H](O)CC[C@]4(C)[C@H]3C[C@H](O)[C@]12C` [NC10031], the IC50 in assay [1] was not below 2000 nM; in assay [2], 50 to 100 nM. Further, the inhibition at 1 µM in assay [3] and in assay [4] was less than 20% in each case.

For the molecule `CC(C)[C@@H](CS(=O)(=O)O)NC(=O)CC[C@@H](C)[C@H]1CC[C@H]2[C@@H]3CC[C@@H]4C[C@H](O)CC[C@]4(C)[C@H]3C[C@H](O)[C@]12C` [NC10032], the IC50 is not below 2000 nM in assay [1] and 50 to 100 nM in assay [2]. In addition, the figures for the inhibition at 1 µM in assay [3] and in assay [4] were less than 20% and 50 to 100%, respectively.

Turning to `CC(C)[C@H](CS(=O)(=O)O)NC(=O)CC[C@@H](C)[C@H]1CC[C@H]2[C@@H]3CC[C@@H]4C[C@H](O)CC[C@]4(C)[C@H]3C[C@H](O)[C@]12C` [NC10033], the IC50 is 500 to 1000 nM in assay [1] and 100 to 200 nM in assay [2]. For the same molecule, the results for the inhibition at 1 µM in assay [3] and in assay [4] were less than 20% and 50 to 100%, respectively.

In the case of `C[C@H](CCC(=O)N[C@@H](CS(=O)(=O)O)c1ccccc1)[C@H]1CC[C@H]2[C@@H]3CC[C@@H]4C[C@H](O)CC[C@]4(C)[C@H]3C[C@H](O)[C@]12C` [NC10035], the half-maximal inhibitory concentration (IC50) in assay [1] was 500 to 1000 nM; in assay [2], not below 200 nM. For the same molecule, the inhibition at 1 µM in assay [3] was less than 20%; in assay [4], 50 to 100%.

Regarding `C[C@H](CCC(=O)N1CCC[C@@H]1CS(=O)(=O)O)[C@H]1CC[C@H]2[C@@H]3CC[C@@H]4C[C@H](O)CC[C@]4(C)[C@H]3C[C@H](O)[C@]12C` [NC10036], the results for the IC50 in assay [1] and in assay [2] were not below 2000 nM and 100 to 200 nM, respectively. For the same molecule, the figures for the inhibition at 1 µM in assay [3] and in assay [4] were less than 20% and more than 100%, respectively.

Take `C[C@H](CCC(=O)N1CCC[C@H]1CS(=O)(=O)O)[C@H]1CC[C@H]2[C@@H]3CC[C@@H]4C[C@H](O)CC[C@]4(C)[C@H]3C[C@H](O)[C@]12C` [NC10037]: the results for the concentration for half-maximal inhibition (IC50) in assay [1] and in assay [2] were less than 500 nM and not below 200 nM, respectively. Further, the inhibition at 1 µM is less than 20% in assay [3] and 50 to 100% in assay [4].

Turning to `C[C@H](CCC(=O)NC[C@H](C)S(=O)(=O)O)[C@H]1CC[C@H]2[C@@H]3CC[C@@H]4C[C@H](O)CC[C@]4(C)[C@H]3C[C@H](O)[C@]12C` [NC10038], the IC50 in assay [1] is not below 2000 nM; in assay [2], 50 to 100 nM. The results for the inhibition at 1 µM in assay [3] and in assay [4] were less than 20% and 50 to 100%, respectively.

For `C[C@H](CCC(=O)NC[C@@H](C)S(=O)(=O)O)[C@H]1CC[C@H]2[C@@H]3CC[C@@H]4C[C@H](O)CC[C@]4(C)[C@H]3C[C@H](O)[C@]12C` [NC10039], the IC50 in assay [1] was in the range of 500 to 1000 nM; in assay [2], 50 to 100 nM. Further, the inhibition at 1 µM in assay [3] is 20 to 50%; in assay [4], 50 to 100%.

Consider `C[C@H](CCC(=O)N[C@@H](CO)CS(=O)(=O)O)[C@H]1CC[C@H]2[C@@H]3CC[C@@H]4C[C@H](O)CC[C@]4(C)[C@H]3C[C@H](O)[C@]12C` [NC10040], for which the IC50 was 1000 to 2000 nM in assay [1] and not below 200 nM in assay [2]. For the same molecule, the inhibition at 1 µM in assay [3] and in assay [4] was less than 20% each time.

For the molecule `C[C@H](CCC(=O)N[C@@H]1CCCC[C@@H]1S(=O)(=O)O)[C@H]1CC[C@H]2[C@@H]3CC[C@@H]4C[C@H](O)CC[C@]4(C)[C@H]3C[C@H](O)[C@]12C` [NC10041], the IC50 in assay [1] was 500 to 1000 nM; in assay [2], not below 200 nM. Moreover, the inhibition at 1 µM in assay [3] and in assay [4] was less than 20% each time.

As for `C[C@H](CCC(=O)N[C@H]1CCCC[C@H]1S(=O)(=O)O)[C@H]1CC[C@H]2[C@@H]3CC[C@@H]4C[C@H](O)CC[C@]4(C)[C@H]3C[C@H](O)[C@]12C` [NC10042], the IC50 is 500 to 1000 nM in assay [1] and not below 200 nM in assay [2]. For the same molecule, the inhibition at 1 µM in assay [3] and in assay [4] was less than 20% throughout.

Take `C[C@H](CCC(=O)N[C@@H](C)CS(=O)(=O)O)[C@H]1CC[C@H]2[C@@H]3CC[C@@H]4C[C@H](O)CC[C@]4(C)[C@H]3C[C@H](O)[C@]12C` [NC10043]: the IC50 was less than 500 nM in assay [1] and 100 to 200 nM in assay [2]. For the same molecule, the inhibition at 1 µM in assay [3] is less than 20%; in assay [4] it was more than 100%.

In the case of `CC(C)C[C@@H](CS(=O)(=O)O)NC(=O)CC[C@@H](C)[C@H]1CC[C@H]2[C@@H]3CC[C@@H]4C[C@H](O)CC[C@]4(C)[C@H]3C[C@H](O)[C@]12C` [NC10045], the results for the IC50 in assay [1] and in assay [2] were less than 500 nM and 50 to 100 nM, respectively. Also, the inhibition at 1 µM in assay [3] was less than 20%; in assay [4], 50 to 100%.

For the molecule `CC(C)C[C@H](CS(=O)(=O)O)NC(=O)CC[C@@H](C)[C@H]1CC[C@H]2[C@@H]3CC[C@@H]4C[C@H](O)CC[C@]4(C)[C@H]3C[C@H](O)[C@]12C` [NC10046], the IC50 in assay [1] was less than 500 nM; in assay [2], 100 to 200 nM. Moreover, the inhibition at 1 µM in assay [3] is less than 20%; in assay [4], 50 to 100%.

On to `C[C@H](CCC(=O)NC1(CS(=O)(=O)O)CC1)[C@H]1CC[C@H]2[C@@H]3CC[C@@H]4C[C@H](O)CC[C@]4(C)[C@H]3C[C@H](O)[C@]12C` [NC10047], for which the figures for the IC50 in assay [1] and in assay [2] were 500 to 1000 nM and 100 to 200 nM, respectively. Besides, the inhibition at 1 µM is less than 20% in assay [3] and 20 to 50% in assay [4].

On to `C[C@H](CCC(=O)N1CC[C@H](S(=O)(=O)O)C1)[C@H]1CC[C@H]2[C@@H]3CC[C@@H]4C[C@H](O)CC[C@]4(C)[C@H]3C[C@H](O)[C@]12C` [NC10048], for which the IC50 is less than 500 nM in assay [1] and 50 to 100 nM in assay [2]. The figures for the inhibition at 1 µM in assay [3] and in assay [4] were less than 20% and 50 to 100%, respectively.

In the case of `C[C@H](CCC(=O)N1CC[C@@H](S(=O)(=O)O)C1)[C@H]1CC[C@H]2[C@@H]3CC[C@@H]4C[C@H](O)CC[C@]4(C)[C@H]3C[C@H](O)[C@]12C` [NC10049], the IC50 in assay [1] was less than 500 nM; in assay [2] it was less than 50 nM. The inhibition at 1 µM in assay [3] is less than 20%; in assay [4], more than 100%.

With `C[C@H](CCC(=O)N(CCN(C)C)CCS(=O)(=O)O)[C@H]1CC[C@H]2[C@@H]3CC[C@@H]4C[C@H](O)CC[C@]4(C)[C@H]3C[C@H](O)[C@]12C` [NC10050], the IC50 in assay [1] was less than 500 nM; in assay [2], 50 to 100 nM. In addition, the inhibition at 1 µM in assay [3] is less than 20%; in assay [4], more than 100%.

On to `C[C@H](CCC(=O)N(CCS(=O)(=O)O)Cc1cccnc1)[C@H]1CC[C@H]2[C@@H]3CC[C@@H]4C[C@H](O)CC[C@]4(C)[C@H]3C[C@H](O)[C@]12C` [NC10051], for which the values for the IC50 in assay [1] and in assay [2] were 1000 to 2000 nM and 50 to 100 nM, respectively. For the same molecule, the inhibition at 1 µM was less than 20% in assay [3] and 50 to 100% in assay [4].

The record behind these values is patent publication US20240391948A1, “NOVEL COMPOUND THAT INHIBITS TNF-ALPHA GENERATION AND INFLAMMASOME ACTIVITY AND PREPARATION METHOD THEREFOR” (SHAPERON INC., priority 2021, published 2024).
